# From publication PMC4893804 (Journal of medicinal chemistry, 2015)
# Read-outs that look alike come from different tables or passages of the source.
# Tests used:
# [1] = tested on: human DNA polymerases α and β; assay: Human DNA polymerase α and β assays, pooled statements in text; assay type: biochemical
# [2] = tested on: herpetic DNA polymerases (HCMV, HSV-1, VZV); assay: Herpetic DNA polymerase assays, pooled statements in text; assay type: biochemical
# [3] = biological target: HSV-1 DNA polymerase (Human herpesvirus 1, UniProt P04293); assay: Enzyme assay with HSV-1 DNA polymerase; assay type: biochemical
# [4] = biological target: M184I HIV-1 RT (Human immunodeficiency virus type 1 group M subtype B, UniProt P03366, M783I); assay: Mutant HIV-1 RT assay
# [5] = biological target: Human DNA Pol β (Homo sapiens, UniProt P06746); assay: Enzyme assay with human DNA polymerase β; assay type: biochemical
# [6] = biological target: HIV-1 RT (Human immunodeficiency virus type 1 group M subtype B, UniProt P03366); assay: HIV-1 reverse transcriptase assay with homopolymeric template/primers; assay type: biochemical
# [7] = biological target: T1, Human DNA Pol α (Homo sapiens, UniProt P09884); assay: Enzyme assay with human DNA polymerase α; assay type: biochemical
# T1 sequence (P09884 1-1462): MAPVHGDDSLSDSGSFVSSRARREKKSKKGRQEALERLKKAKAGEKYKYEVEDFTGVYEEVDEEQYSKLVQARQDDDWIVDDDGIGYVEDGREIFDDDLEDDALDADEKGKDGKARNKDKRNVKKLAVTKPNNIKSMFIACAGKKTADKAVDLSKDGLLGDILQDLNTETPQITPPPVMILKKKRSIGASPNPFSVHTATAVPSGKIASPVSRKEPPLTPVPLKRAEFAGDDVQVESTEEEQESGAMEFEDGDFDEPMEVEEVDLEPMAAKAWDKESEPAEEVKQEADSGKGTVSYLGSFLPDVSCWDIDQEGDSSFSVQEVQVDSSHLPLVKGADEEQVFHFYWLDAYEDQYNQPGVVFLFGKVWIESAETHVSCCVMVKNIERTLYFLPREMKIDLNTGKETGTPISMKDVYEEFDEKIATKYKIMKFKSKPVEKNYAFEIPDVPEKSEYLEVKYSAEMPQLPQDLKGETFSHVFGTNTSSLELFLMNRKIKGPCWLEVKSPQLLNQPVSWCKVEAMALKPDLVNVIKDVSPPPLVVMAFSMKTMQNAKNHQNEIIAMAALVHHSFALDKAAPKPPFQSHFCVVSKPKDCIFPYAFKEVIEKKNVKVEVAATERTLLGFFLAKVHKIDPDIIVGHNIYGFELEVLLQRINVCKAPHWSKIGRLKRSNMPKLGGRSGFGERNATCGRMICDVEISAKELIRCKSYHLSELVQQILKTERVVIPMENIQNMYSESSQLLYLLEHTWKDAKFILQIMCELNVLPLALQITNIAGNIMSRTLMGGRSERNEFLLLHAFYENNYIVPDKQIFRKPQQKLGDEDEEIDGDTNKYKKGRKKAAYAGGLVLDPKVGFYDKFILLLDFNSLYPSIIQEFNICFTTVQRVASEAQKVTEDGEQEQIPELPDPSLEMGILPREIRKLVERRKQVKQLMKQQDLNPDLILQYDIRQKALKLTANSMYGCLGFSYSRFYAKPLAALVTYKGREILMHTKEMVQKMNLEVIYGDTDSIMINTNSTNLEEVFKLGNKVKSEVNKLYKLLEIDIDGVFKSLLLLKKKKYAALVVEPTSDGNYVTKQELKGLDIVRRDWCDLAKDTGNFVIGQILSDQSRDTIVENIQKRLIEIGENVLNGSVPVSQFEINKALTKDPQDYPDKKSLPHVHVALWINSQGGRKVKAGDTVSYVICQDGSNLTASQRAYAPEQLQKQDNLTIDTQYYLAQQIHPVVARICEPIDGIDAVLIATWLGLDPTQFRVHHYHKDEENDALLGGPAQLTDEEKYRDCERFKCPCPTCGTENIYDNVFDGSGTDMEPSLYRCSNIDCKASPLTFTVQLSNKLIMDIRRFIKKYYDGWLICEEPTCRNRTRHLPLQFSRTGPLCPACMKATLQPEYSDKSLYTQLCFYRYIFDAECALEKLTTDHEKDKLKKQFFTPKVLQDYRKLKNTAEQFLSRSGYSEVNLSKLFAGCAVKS
# [8] = biological target: VZV DNA polymerase (Varicella-zoster virus, UniProt P09252); assay: Enzyme assay with VZV DNA polymerase; assay type: biochemical
# [9] = biological target: Y115F HIV-1 RT (Human immunodeficiency virus type 1 group M subtype B, UniProt P03366, Y714F); assay: Mutant HIV-1 RT assay
# [10] = biological target: T2, RB69/ABC5 hybrid DNA polymerase (Escherichia phage RB69, UniProt Q38087, D222A/D327A/F479V/I557M/L561V/L562T/N480A/N558A/R559L/V478W); assay: biochemical; design: species or system bacteriophage RB69 / HCMV
# [11] = biological target: bacteriophage RB69 DNA polymerase gp43 (WT) (Escherichia phage RB69, UniProt Q38087, D222A/D327A); assay: biochemical
# [12] = biological target: HCMV DNA polymerase (UL54) (Human cytomegalovirus, UniProt P08546); assay: Enzyme assay with HCMV DNA polymerase; assay type: biochemical; settings: activated calf thymus DNA, [3H]dTTP
# [13] = biological target: T2, RB69/ABC5 hybrid DNA polymerase; settings: cited from earlier work
# [14] = IC50 HIV-1 RT Poly rA.dT ([3H]dTTP), Table 7, Poly rA.dT, [3H]dTTP
# [15] = IC50 HIV-1 RT Poly rC.dG ([3H]dGTP), Poly rC.dG, [3H]dGTP
# [16] = IC50 HIV-1 RT Poly rI.dC ([3H]dCTP), Poly rI.dC, [3H]dCTP
# [17] = IC50 HIV-1 RT Poly rU.dA ([3H]dATP), Poly rU.dA, [3H]dATP
# [18] = IC50 HIV-1 RT, poly rA.dT template/primer, [3H]dTTP
# [19] = IC50 Wild-type HIV-1 RT, Table 8, wild-type RT
# Chain of VZV DNA polymerase (P09252 whole entry): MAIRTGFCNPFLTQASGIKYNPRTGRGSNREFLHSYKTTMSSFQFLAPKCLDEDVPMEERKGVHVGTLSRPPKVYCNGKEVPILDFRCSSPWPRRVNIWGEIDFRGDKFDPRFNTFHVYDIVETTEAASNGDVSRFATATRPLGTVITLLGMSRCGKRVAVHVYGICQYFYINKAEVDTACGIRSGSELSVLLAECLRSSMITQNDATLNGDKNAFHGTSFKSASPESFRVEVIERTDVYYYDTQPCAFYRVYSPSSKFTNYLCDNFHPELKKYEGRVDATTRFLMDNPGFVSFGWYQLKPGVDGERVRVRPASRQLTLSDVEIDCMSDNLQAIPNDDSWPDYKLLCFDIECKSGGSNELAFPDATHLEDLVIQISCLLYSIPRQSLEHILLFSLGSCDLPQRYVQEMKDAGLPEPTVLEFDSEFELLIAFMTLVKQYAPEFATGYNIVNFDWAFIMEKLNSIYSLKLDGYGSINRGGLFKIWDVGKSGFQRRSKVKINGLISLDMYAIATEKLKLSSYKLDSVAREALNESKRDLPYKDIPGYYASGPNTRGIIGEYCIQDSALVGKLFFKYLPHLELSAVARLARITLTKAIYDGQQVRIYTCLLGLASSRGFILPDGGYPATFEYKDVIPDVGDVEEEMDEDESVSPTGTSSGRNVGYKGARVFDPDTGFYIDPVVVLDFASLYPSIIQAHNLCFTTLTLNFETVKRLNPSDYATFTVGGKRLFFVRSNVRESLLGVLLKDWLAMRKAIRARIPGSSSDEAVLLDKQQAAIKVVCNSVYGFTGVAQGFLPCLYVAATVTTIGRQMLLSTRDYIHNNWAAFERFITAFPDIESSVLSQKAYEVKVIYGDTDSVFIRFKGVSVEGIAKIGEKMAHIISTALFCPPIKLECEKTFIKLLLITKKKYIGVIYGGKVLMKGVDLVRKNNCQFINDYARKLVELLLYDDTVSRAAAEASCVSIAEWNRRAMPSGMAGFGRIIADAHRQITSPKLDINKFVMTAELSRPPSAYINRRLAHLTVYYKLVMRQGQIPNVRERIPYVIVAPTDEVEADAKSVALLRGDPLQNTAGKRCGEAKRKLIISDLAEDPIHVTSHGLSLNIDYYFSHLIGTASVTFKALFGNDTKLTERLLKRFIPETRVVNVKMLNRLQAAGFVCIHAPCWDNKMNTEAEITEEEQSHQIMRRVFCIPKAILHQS
# T2 sequence (Q38087 whole entry D222A/D327A/V478W/F479V/N480A/I557M/N558A/R559L/L561V/L562T): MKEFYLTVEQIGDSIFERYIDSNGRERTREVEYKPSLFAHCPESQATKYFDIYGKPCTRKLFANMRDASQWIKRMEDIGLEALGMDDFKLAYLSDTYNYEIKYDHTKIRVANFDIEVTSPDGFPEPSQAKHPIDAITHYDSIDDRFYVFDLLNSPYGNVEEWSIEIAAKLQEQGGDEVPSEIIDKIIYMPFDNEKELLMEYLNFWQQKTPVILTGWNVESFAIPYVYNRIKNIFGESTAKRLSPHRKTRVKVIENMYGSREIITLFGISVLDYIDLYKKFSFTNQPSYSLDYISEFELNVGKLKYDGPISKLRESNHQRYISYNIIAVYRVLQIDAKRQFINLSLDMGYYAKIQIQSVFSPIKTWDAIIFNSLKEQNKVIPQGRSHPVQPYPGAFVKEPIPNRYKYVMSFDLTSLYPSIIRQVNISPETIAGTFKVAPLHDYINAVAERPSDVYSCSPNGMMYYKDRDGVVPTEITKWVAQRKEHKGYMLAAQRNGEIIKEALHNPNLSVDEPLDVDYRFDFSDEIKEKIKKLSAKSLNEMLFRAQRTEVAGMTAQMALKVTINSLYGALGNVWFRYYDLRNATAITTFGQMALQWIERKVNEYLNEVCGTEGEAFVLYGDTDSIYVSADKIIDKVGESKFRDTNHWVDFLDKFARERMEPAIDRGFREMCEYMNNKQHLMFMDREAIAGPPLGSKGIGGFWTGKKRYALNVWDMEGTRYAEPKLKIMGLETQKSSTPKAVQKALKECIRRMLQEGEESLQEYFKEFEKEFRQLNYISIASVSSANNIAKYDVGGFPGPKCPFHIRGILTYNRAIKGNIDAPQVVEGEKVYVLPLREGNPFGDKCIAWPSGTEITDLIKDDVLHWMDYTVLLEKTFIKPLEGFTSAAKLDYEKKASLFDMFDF
# Chain of HSV-1 DNA polymerase (P04293 whole entry): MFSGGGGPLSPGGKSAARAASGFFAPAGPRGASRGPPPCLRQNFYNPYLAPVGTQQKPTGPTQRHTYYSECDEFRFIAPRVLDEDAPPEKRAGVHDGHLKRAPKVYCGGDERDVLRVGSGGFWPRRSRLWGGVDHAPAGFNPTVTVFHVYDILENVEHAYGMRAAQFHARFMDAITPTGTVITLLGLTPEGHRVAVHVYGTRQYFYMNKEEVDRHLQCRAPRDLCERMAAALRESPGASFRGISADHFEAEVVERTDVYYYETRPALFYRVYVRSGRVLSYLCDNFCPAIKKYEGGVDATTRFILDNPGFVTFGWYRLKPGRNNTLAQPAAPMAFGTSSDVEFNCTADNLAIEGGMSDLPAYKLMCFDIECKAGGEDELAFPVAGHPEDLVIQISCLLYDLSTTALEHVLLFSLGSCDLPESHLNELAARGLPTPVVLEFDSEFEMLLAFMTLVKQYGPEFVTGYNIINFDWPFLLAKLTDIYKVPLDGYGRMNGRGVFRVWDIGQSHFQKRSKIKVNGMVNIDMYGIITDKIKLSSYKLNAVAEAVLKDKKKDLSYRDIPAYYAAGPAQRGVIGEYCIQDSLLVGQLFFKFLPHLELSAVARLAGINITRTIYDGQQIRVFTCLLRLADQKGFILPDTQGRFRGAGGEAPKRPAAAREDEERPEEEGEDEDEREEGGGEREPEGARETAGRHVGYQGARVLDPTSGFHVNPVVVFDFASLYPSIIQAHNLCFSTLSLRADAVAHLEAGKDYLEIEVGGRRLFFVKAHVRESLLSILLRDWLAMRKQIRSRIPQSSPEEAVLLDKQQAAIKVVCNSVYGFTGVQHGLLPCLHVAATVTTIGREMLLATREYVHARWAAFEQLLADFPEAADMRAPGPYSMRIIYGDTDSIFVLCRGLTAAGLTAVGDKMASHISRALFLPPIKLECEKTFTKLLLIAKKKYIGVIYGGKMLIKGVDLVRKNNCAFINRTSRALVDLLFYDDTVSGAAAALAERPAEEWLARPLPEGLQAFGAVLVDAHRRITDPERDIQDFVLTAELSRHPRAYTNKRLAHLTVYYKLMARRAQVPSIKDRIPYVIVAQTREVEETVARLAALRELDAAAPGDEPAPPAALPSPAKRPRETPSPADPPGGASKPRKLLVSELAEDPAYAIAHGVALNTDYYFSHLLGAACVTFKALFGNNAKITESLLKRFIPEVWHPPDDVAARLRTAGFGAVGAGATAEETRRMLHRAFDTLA
# Chain of HCMV DNA polymerase (UL54) (P08546 whole entry): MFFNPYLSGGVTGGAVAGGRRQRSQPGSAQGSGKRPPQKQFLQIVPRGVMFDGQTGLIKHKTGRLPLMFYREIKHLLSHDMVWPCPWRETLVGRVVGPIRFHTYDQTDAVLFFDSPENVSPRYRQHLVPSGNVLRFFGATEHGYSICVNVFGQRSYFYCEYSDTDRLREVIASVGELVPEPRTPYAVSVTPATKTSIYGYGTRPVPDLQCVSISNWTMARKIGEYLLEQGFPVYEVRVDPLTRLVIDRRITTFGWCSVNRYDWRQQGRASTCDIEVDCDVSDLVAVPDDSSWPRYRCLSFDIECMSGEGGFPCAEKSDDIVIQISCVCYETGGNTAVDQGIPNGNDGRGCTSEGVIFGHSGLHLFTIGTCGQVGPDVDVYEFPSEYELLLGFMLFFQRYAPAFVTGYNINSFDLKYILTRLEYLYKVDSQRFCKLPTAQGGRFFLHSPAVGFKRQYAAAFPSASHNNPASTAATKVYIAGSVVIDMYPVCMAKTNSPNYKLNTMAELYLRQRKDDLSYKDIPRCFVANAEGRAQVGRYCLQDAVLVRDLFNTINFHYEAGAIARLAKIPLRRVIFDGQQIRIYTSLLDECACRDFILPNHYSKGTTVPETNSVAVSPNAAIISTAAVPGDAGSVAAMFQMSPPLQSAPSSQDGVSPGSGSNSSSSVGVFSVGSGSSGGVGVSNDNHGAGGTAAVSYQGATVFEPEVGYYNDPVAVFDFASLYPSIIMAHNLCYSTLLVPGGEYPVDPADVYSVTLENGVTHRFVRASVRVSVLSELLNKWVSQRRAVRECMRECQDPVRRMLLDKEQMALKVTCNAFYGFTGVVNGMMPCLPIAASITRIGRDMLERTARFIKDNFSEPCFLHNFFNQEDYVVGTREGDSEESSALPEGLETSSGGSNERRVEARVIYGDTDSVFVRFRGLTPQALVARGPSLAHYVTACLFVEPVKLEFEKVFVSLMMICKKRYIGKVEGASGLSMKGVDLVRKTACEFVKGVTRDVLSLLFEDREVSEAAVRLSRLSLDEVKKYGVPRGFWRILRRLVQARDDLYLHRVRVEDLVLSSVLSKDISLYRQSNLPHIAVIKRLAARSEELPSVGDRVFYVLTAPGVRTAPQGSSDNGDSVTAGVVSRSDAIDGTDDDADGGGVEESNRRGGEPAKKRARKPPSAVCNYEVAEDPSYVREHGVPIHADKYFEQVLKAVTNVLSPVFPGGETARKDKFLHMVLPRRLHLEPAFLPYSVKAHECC
# Chain of bacteriophage RB69 DNA polymerase gp43 (WT) (Q38087 whole entry D222A/D327A): as the sequence (Q38087 whole entry D222A/D327A/V478W/F479V/N480A/I557M/N558A/R559L/L561V/L562T) above, with W478V, V479F, A480N, M557I, A558N, L559R, V561L, T562L counted along it
Structure (SMILES),IC50 [3],IC50 [4],IC50 [5],"IC50 [6, 14]","IC50 [6, 15]","IC50 [6, 16]","IC50 [6, 17]","IC50 [6, 18]","IC50 [6, 19]",IC50 [7],IC50 [8],IC50 [9],IC50 ([12]; IC50 HCMV DNA Pol),further results
Cc1cn(C[C@@H]2CCC[C@H]2COC(C(=O)O)P(=O)(O)O)c(=O)[nH]c1=O (relative stereo) [Compound 6o],–,–,–,–,–,–,–,–,–,–,–,–,–,"inhibitory activity against human DNA polymerases (in words) [1]: poor, if any, inhibitory activity; inhibitory activity against herpetic DNA polymerases (in words) [2]: poor, if any, inhibitory activity"
"Cc1cn(C/C=C\COC(C(=O)O)P(=O)(O)O)c(=O)[nH]c1=O (stereo not drawn) [Compound 6g, cis-2-(4-(2,4-Dioxo-5-methyl-pyrimidin-1-yl)but-2-enyloxy)-2-phosphonoacetic acid]",3.7 ± 1.7 µM,> 2500 µM,> 500 µM,235 ± 16 µM,> 500 µM,> 500 µM,≥ 500 µM,235 ± 16 µM,320 ± 89 µM,14 ± 7 µM,2.2 ± 0.1 µM,655 ± 409 µM,–,loss of anti-HIV-1 RT activity compared to prototype thymine-α-CNP ([6]; ratio of IC50 vs thymine-α-CNP): ~ 600 fold; selectivity for herpetic DNA polymerases compared to human DNA polymerase α ([2]; herpetic vs human DNA polymerase α): 4- to 7 fold; higher potency against herpetic DNA polymerases compared to butyl analogue 6h ([2]; ratio vs 6h): 8- to 20 fold; superior activity against herpetic DNA polymerases than against HIV-1 RT ([2]; selectivity herpetic over HIV-1 RT): ~ 100 fold; IC50 [10]: > 100 µM; IC50 [11]: > 100 µM
"O=C(O)C(OC/C=C\Cn1cc(F)c(=O)[nH]c1=O)P(=O)(O)O (stereo not drawn) [Compound 6i, 2-Cis-(4-(5-fluoro-2,4-dioxo-3,4-dihydropyrimidin-1(2H)-yl)but-2-enyloxy)-2-phosphonoacetic acid]",24 ± 1 µM,–,> 500 µM,–,–,–,–,> 500 µM,–,325 ± 4 µM,27 ± 2 µM,–,30 ± 16 µM,–
"O=C(O)C(OCCCCn1cc(F)c(=O)[nH]c1=O)P(=O)(O)O (stereo not shown) [Compound 6j, 2-(4-(5-Fluoro-2,4-dioxo-3,4-dihydropyrimidin-1(2H)-yl)butoxy)-2-phosphonoacetic acid]",–,–,–,–,–,–,–,–,–,–,–,–,–,"IC50 ([3]; read-out: IC50 HSV-1 DNA Pol, activated calf thymus DNA, [3H]dTTP): 6.7 ± 4.6 µM; IC50 ([5]; read-out: IC50 Human DNA Pol β, activated calf thymus DNA, [3H]dTTP): 306 ± 3 µM; IC50 ([6]; read-out: IC50 HIV-1 RT, poly rA.dT template/primer, [3H]dTTP): 263 ± 69 µM; IC50 ([12]; read-out: IC50 HCMV DNA Pol): 9.4 ± 4.1 µM; IC50 ([7]; read-out: IC50 Human DNA Pol α, activated calf thymus DNA, [3H]dTTP): 72 ± 52 µM; IC50 ([8]; read-out: IC50 VZV DNA Pol, poly dA.oligo dT, [3H]dTTP): 4.1 ± 0.9 µM"
"Nc1ncnc2c1ncn2C/C=C\COC(C(=O)O)P(=O)(O)O (stereo not drawn) [Compound 6k, 2-Cis-(4-(6-amino-9H-purin-9-yl)but-2-enyloxy)-2-phosphonoacetic acid]",2.7 ± 2 µM,≥ 2500 µM,454 ± 28 µM,404 ± 30 µM,> 500 µM,> 500 µM,40 ± 8 µM,404 ± 30 µM,531 ± 154 µM,≥ 500 µM,3.3 ± 0.4 µM,630 ± 37 µM,5.5 ± 2.1 µM,–
"Nc1nc2c(ncn2C/C=C\COC(C(=O)O)P(=O)(O)O)c(=O)[nH]1 (stereo not drawn) [Compound 6l, 2-Cis-(4-(2-amino-6-oxo-1H-purin-9(6H)-yl)but-2-enyloxy)-2-phosphonoacetic acid]",2.1 ± 2.3 µM,> 1250 µM,> 500 µM,≥ 500 µM,> 500 µM,> 500 µM,369 ± 48 µM,≥ 500 µM,≥ 1250 µM,365 ± 91 µM,2.9 µM,≥ 1250 µM,3.6 ± 0.6 µM,–
"Nc1ccn(C/C=C\COC(C(=O)O)P(=O)(O)O)c(=O)n1 (stereo not drawn) [Compound 6m, 2-Cis-(4-(4-amino-2-oxopyrimidin-1(2H)-yl)but-2-enyloxy)-2-phosphonoacetic acid]",12 ± 6 µM,> 1250 µM,> 500 µM,270 ± 33 µM,> 500 µM,273 ± 54 µM,> 500 µM,270 ± 33 µM,318 ± 73 µM,414 ± 22 µM,2.9 ± 0.9 µM,408 ± 16 µM,16 ± 8 µM,–
"O=C(O)C(OC/C=C\CO)P(=O)(O)O (stereo not drawn) [Compound 6n, 2-Cis-((4-hydroxybut-2-en-1-yl)oxy)-2-phosphonoacetic acid]",–,–,–,–,–,–,–,–,–,–,–,–,–,inhibitory activity against human DNA polymerases (in words) [1]: insensitive; inhibitory activity against HIV-1 RT (in words) [6]: insensitive; inhibitory activity against herpetic DNA polymerases (in words) [2]: insensitive
"O=C(O)P(=O)(O)O [PFA, phosphonoformic acid, reference compound]",0.44 ± 0.25 µM,–,> 100 µM,–,–,–,–,–,–,7.7 ± 6.5 µM,–,–,9.8 ± 5.8 µM,IC50 ([6]; IC50 HIV-1 RT): 0.34 ± 0.01 µM; IC50 ([6]; IC50 HIV-1 RT Poly rA.dT ([3H]dTTP)): 0.34 ± 0.01 µM; IC50 ([6]; IC50 HIV-1 RT Poly rC.dG ([3H]dGTP)): 17 ± 2 µM; IC50 ([6]; IC50 HIV-1 RT Poly rI.dC ([3H]dCTP)): 6.8 ± 2 µM; IC50 ([6]; IC50 HIV-1 RT Poly rU.dA ([3H]dATP)): 0.75 ± 0.13 µM; sensitivity of chimera RB69/ABC5 to active-site inhibitors [13]: sensitive
Nc1nc2c(ncn2COCCOP(=O)(O)OP(=O)(O)OP(=O)(O)O)c(=O)[nH]1 [acyclovir triphosphate],–,–,–,–,–,–,–,–,–,–,–,–,–,sensitivity of chimera RB69/ABC5 to active-site inhibitors [13]: sensitive
